Source: US20220298222A1, “COMBINATION THERAPY OF A T CELL THERAPY AND AN ENHANCER OF ZESTE HOMOLOG 2 (EZH2) INHIBITOR AND RELATED METHODS” (Juno Therapeutics, Inc., priority 2019, published 2022)

How the values were obtained:
[1] = system: ABC cell lines (SU-DHL-2 and OCI-LY3); assay: Cell viability by ATP luminescence-based assay, ABC cell lines; details: 6 days, 1.0 μM EPZ-6438, 0.1 μM or 1.0 μM CPI-1205, wild type EZH2
Description: (§1) Cell viability was determined based on the amount of ATP quantified by a luminescence-based assay.

[2] = system: H3K27Me3 in GCB (WSU-DLCL2, Farage, KARPAS-422, SU-DHL-5) and ABC (SU-DHL-2, OCI-LY3) DLBCL cell lines; assay: H3K27Me3 levels by Western blot in GCB and ABC DLBCL cell lines, two EZH2 inhibitors; assay type: cell-based; details: 6 days; 0.1 or 1.0 μM; all GCB and ABC cell lines tested
[3] = system: GCB cell lines (WSU-DLCL2, Farage, KARPAS-422, and SU-DHL-5); assay: Cell viability by ATP luminescence-based assay, GCB cell lines; details: 6 days; 1.0 μM EPZ-6438, 0.1 μM or 1.0 μM CPI-1205; mutant and wild type GCB cell lines
Description: as §1

[4] = cited from earlier work

Compound	cell viability (ATP) [1]	H3K27Me3 levels (Western blot) [2]	cell viability (ATP) [3]	recommended phase II dose ([4]; twice daily (BID) or three times daily (TID) for 28-day cycles, subjects with R/R B-cell non-Hodgkin lymphoma or an advanced solid tumor)	maximum tolerated dose (MTD) ([4]; twice daily, human subjects, R/R B-cell lymphoma, 28-day cycles)
COc1cc(C)[nH]c(=O)c1CNC(=O)c1c(C)n([C@H](C)C2CCN(CC(F)(F)F)CC2)c2ccccc12 [CPI-1205]	resistant	decreased H2K27Me3 levels	decreased cell viability		
CCN(c1cc(-c2ccc(CN3CCOCC3)cc2)cc(C(=O)NCc2c(C)cc(C)[nH]c2=O)c1C)C1CCOCC1 [tazemetostat]				800 mg	800 milligrams
